Data as given in patent publication US5989198A, “Use of capillary electrophoresis to determine glomerular filtration rate using iothalamate” (Mayo Foundation for Medical Education and Research, priority 1997, dated 1999).
Where two headings read alike, the source gives them in different places.

Assays:
[1] = GFR by capillary electrophoresis of non-isotopic (cold) iothalamate meglumine, timed urine and average of 2 plasma samples after subcutaneous injection; type: in vivo, human; conditions: for mean GFR: capillary electrophoresis
Method: Prior to the test, patients were given 3 drops of a saturated solution of potassium iodide in 20 mis of water to prevent thyroid uptake of the small amount of free ^125 I-iothalamate and to protect patients from radiation exposure to the thyroid. They were also given a single subcutaneous injection of 0.5 mls of iothalamate meglumine (Conray®) (300 mg) diluted 1:1 with distilled water. Patients who professed an allergy to iodine were not included in this study, nor were patients who had been given an angiographic dye in the previous 24 hours.
On the day of the appointment, the patient ate nothing for 4 hours preceding the test (diabetics 2 hours) and drank 4 glasses of water in the hour preceding the test. They were also instructed not to void within 45 minutes of their appointment time. Patients were given oral hydration of 200 mls/per hour throughout the test.
Prior to injection, urine (U0) and blood plasma (P0) samples were obtained to assess for drug interferences. After subcutaneous injection of the two different GFR markers, a 45-minute equilibration period allowed blood levels to peak and become stable or fall as previously described for 125I subcutaneous iothalamate clearances by N. T. Ott et al., Mayo Clin. Proc., 50, 664 (1975), for ^125 I-iothalamate. This sampling method was adapted from studies reported by Israelit et al. for ^125 I-iothalamate, in Kid. […] After the 45 minute equilibration period, 7 ml of blood (P1) and a urine sample (UE) were collected and time (T0) was recorded. […] Bladder emptying was assessed by monitoring with a Diagnostic Ultrasound bladder scanner (Model No. 2500). […]
The patient was moved to a waiting room and returned to the laboratory after 45 to 60 minutes when the urge to void became apparent. Second blood (P2) and urine (U1) samples were collected, urine volume was recorded, and bladder emptying monitored. Adequacy of the test was confirmed if the bladder was empty (<10 ml or <10% of voided volume on scanner readout), and a minimum of 100 mls of urine was voided during the test. The timed urine (U1) and bloods (P1 and P2) were analyzed by CE. […]

[2] = cited from earlier work
[3] = urine diluted with 5 mM borate; cited from earlier work

CNC(=O)c1c(I)c(NC(C)=O)c(I)c(C(=O)O)c1I [iothalamate meglumine, 1-deoxy-1-(methylamino)-D-glucitol-5-acetamido-2,4,6,-triiodo-N-methylisophthalamate]
mean GFR ([1]; initial patient group, before vortexing of ultrafiltrate): 58 mls/min/1.73 M^2 | range of GFR's over which CE and isotope methods correlated ([1]; initial patients (one hundred), s.c. injection): 9-103 mls/min/1.73 M^2 | mean GFR ([1]; second group of 31 patients, ultrafiltrate vortexed): 62 mls/min

CNC(=O)c1c(I)c(NC(C)=O)c(I)c(C(=O)O)c1I [Iothalamate]
GFR - Range of Normal ([2]; AGE 18-22): > 90 ml/min/1.73 m^2 | GFR - Range of Normal ([2]; AGE 23-27): > 88 ml/min/1.73 m^2 | GFR - Range of Normal ([2]; AGE 28-32): > 86 ml/min/1.73 m^2 | GFR - Range of Normal ([2]; AGE 33-37): > 84 ml/min/1.73 m^2 | GFR - Range of Normal ([2]; AGE 38-42): > 82 ml/min/1.73 m^2 | GFR - Range of Normal ([2]; AGE 43-47): > 80 ml/min/1.73 m^2 | GFR - Range of Normal ([2]; AGE 48-52): > 78 ml/min/1.73 m^2 | GFR - Range of Normal ([2]; AGE 53-57): > 75 ml/min/1.73 m^2 | GFR - Range of Normal ([2]; AGE 58-62): > 73 ml/min/1.73 m^2 | GFR - Range of Normal ([2]; AGE >62): > 70 ml/min/1.73 m^2 | sample stability, refrigerated [3]: at least 2 weeks
